In ChEMBL document CHEMBL1201862, “PubChem BioAssay data set” (2004):
The source made the active and inactive calls.

How the values were obtained:
[1] = molecular target: T1, Streptokinase A (Streptococcus pyogenes serotype M1, UniProt P10520); test: viability-normalized secreted streptokinase activity reduction – plasminogen activation absorbance, OD405, dose response (AID 1914); type: functional, Streptococcus pyogenes M1 GAS;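 also: secreted streptokinase activity via plasminogen activation per viability signal from cell pellet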
T1 sequence (P10520 whole entry): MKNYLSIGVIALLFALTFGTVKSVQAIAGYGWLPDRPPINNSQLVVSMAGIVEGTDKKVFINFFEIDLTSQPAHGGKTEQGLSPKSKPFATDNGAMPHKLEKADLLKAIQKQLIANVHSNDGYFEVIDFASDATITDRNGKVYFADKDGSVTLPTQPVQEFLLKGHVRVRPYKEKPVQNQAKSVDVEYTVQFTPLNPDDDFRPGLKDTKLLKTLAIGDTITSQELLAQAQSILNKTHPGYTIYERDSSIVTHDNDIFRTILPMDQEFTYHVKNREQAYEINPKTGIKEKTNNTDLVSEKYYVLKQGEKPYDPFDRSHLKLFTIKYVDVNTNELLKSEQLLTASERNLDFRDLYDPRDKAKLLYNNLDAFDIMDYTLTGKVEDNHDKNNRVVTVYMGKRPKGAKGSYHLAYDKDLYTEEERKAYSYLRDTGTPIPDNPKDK

[2] = molecular target: T2, Sentrin-specific protease 1 (Homo sapiens, UniProt Q9P0U3); test: Dose response confirmation of small molecule inhibitors of the catalytic domain of the SUMO protease, SENP1 in a FRET assay.; type: functional; conditions: read-out: IC50_Mean
T2 sequence (Q9P0U3 whole entry): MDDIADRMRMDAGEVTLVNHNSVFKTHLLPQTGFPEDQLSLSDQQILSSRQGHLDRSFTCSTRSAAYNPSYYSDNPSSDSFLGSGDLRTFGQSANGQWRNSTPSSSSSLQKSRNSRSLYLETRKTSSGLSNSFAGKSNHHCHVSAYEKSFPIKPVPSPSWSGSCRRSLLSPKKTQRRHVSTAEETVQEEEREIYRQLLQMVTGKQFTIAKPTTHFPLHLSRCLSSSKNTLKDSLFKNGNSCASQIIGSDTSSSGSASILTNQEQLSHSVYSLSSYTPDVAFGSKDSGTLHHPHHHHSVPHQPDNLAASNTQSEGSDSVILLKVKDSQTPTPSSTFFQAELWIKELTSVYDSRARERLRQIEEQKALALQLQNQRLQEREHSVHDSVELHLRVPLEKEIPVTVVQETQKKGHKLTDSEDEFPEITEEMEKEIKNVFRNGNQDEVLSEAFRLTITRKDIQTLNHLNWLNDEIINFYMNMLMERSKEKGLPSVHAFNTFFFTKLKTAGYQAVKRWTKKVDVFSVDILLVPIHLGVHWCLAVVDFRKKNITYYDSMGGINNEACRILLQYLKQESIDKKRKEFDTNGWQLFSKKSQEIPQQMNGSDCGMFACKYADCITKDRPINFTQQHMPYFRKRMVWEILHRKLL

[3] = molecular target: T2, Sentrin-specific protease 1; test: SENP1 catalytic domain blockers, concentration series – biochemical, kinetic FRET, dose response (AID 651697); type: functional; conditions: read-out: IC50_Mean
[4] = test system: Streptococcus; test: GAS UMAA2166 growth inhibition – luminescence, BacTiterGlo, counter-screen for streptokinase expression inhibitor project, dose response (AID 1915); type: functional, organism-based;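 also: potency for reduction of bacterial viability or growth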
[5] = test system: Streptococcus sp. 'group A'; test: Streptococcus pyogenes SK(-)GAS viability under kanamycin – luminescence, BacTiterGlo, confirmation, counter-screen for streptokinase expression inhibitor project, dose response (AID 1900); type: functional, organism-based
[6] = off-target signal loss in HeLa-CEM21 co-culture – HeLa F-luc CTL cells, cherry-picked, counter-screen for HIV-1 Env fusion inhibitor project, dose response (AID 652040); type: functional, cell-based;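 also: potency for signal decrease marking cytotoxic or nonspecific inhibition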
[7] = HIV-1 AD8 envelope cell-cell fusion blockers – cherry-pick, dose response (AID 652062); type: functional, cell-based;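 also: luciferase signal from cell-cell fusion driven by HIV-1 clade B AD8 Env; potency is for inhibitors of fusion seen as a drop in luminescence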
[8] = NIH3T3 cell viability loss – ATP luminescence, mouse fibroblasts, counter-screen, dose response (AID 2010); type: functional, cell-based;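 also: cells exposed to compound for about 90 hours before reading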
[9] = microbe, parasite or virus in culture; type: functional; conditions: Mycobacterium tuberculosis
[10] = blockers of HIV-1 envelope-mediated cell-cell fusion – cherry-pick, dose response (AID 652057); type: functional, cell-based
[11] = viability loss in CEM21 cells – cell-based, CellTiter-Glo luminescence, cherry-picked, cytotoxicity control for viral fusion inhibitor project, dose response (AID 652042); type: functional;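 also: potency for signal decrease meaning cytotoxicity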
[12] = test system: INS1; test: INS-1E survival protection against cytokine death – cell-based, luminescence, retest, dose response (AID 449756); type: functional; conditions: Rattus norvegicus, INS1;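 also: cell death triggered by IL-1 beta plus TNF-alpha plus IFN-gamma mixture; protective hits raise ATP signal compared with cytokine alone wells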
[13] = blockers of HIV-1 ZM109 envelope-driven cell-cell fusion – HeLa effector, CEM target cells, luciferase, cherry-pick, dose response (AID 652058); type: functional, cell-based;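 also: luciferase signal from HIV-1 Env mediated cell-cell fusion of effector and target cells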
[14] = Trypanosoma cruzi growth suppression in host cells – NIH3T3 host cells, beta-gal luminescence, confirmation (AID 2044); type: functional, cell-based;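 also: intracellular parasites grown in NIH/3T3 mouse fibroblasts as host cells; luminescent beta-galactosidase reporter signal from transgenic T. cruzi replicating inside host cells; inhibitors lower the luminescence signal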
[15] = molecular target: T3, Small ubiquitin-related modifier 1 (Homo sapiens, UniProt P63165); test: SUMO1 protein interaction blockers, potency – biochemical, fluorescence polarization, uHTS hits, dose response (AID 624382); type: functional; conditions: read-out: IC50_Mean
[16] = molecular target: T3, Small ubiquitin-related modifier 1; test: SUMO1 protein-protein binding blockers, potency – biochemical, FRET, dose response (AID 624383); type: functional; conditions: read-out: IC50_Mean
[17] = molecular target: T4, Carboxy-terminal domain RNA polymerase II polypeptide A small phosphatase 1 (Homo sapiens, UniProt Q9GZU7); test: CTDSP1 inhibitors, concentration-response, biochemical, absorbance readout, ultra-high-throughput screen actives (AID 540297); type: functional
T4 sequence (Q9GZU7 whole entry): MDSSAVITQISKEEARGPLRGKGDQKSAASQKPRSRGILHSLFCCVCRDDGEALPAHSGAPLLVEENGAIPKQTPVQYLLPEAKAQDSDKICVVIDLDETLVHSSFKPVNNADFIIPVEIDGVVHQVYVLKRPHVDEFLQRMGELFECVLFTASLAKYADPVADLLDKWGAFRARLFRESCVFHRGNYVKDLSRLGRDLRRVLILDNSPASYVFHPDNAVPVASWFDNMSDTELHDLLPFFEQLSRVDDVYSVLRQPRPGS

[18] = molecular target: T5, Caspase-6 (Homo sapiens, UniProt P55212); test: inhibition of CASP6 peptide cleavage – biochemical, VEID-R110 fluorescence, cherry-pick, dose response (AID 720632)
T5 sequence (P55212 whole entry): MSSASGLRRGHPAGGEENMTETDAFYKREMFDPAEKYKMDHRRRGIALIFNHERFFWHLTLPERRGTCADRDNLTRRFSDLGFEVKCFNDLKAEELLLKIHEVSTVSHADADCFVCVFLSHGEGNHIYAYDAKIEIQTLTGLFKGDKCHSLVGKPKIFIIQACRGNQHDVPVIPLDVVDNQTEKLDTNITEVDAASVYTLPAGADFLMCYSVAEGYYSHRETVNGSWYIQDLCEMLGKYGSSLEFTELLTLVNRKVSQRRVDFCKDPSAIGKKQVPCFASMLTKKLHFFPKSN

[19] = molecular target: T6, Corticotropin-releasing factor receptor 2/Corticotropin-releasing factor-binding protein (Homo sapiens, UniProt P24387+Q13324); test: activators of CRF receptor 2 with binding protein – uHTS hits, confirmation (AID 602473); type: functional; conditions: read-out: EC50_Mean
T6 sequence (Q13324 whole entry): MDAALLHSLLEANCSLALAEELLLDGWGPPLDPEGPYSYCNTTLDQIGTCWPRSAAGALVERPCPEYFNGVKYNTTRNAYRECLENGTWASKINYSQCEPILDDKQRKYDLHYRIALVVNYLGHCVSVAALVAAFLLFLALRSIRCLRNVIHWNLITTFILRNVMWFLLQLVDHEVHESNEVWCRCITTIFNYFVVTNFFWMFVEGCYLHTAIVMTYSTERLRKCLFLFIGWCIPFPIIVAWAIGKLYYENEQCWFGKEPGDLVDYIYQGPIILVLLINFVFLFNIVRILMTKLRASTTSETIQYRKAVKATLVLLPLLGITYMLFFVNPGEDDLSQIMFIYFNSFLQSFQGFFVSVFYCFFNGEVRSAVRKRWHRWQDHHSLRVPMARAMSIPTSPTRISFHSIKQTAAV
T6 sequence (P24387 whole entry): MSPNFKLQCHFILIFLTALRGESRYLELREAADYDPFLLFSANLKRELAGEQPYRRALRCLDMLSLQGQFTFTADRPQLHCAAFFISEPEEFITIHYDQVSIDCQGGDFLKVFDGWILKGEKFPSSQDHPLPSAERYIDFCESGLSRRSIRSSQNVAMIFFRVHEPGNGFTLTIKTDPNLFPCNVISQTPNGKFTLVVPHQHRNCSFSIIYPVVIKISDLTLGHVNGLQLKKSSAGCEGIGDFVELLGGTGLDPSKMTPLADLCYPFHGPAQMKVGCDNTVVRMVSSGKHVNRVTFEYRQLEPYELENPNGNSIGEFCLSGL

[20] = viability loss in HEK293T cells – cell-based, cherry-picks, cytotoxicity control for HIV Vif inhibitor project, dose response (AID 652208); type: functional
[21] = test system: Vero; test: viability loss in Vero cells – cell-based, plate reader, cherry-pick samples, cytotoxicity control, dose response (AID 687020); type: functional; conditions: Chlorocebus sabaeus
[22] = molecular target: Beta-lactamase (Salmonella choleraesuis (strain SC-B67), UniProt Q5J463); test: Epi-absorbance-based counterscreen for selective VIM-2 inhibitors: dose response biochemical high throughput screening assay to identify inhibitors of TEM-1 serine-beta-lactamase.
[23] = molecular target: T7, Beta-lactamase (Pseudomonas aeruginosa, UniProt Q79MP6); test: inhibition of IMP-1 beta-lactamase activity – biochemical, epi-absorbance, selectivity assay for VIM-2 inhibitor project, dose response (AID 1920)
[24] = molecular target: T7, Beta-lactamase; test: […] counterscreen for selective VIM-2 inhibitors: dose response biochemical high throughput screening assay to identify inhibitors of IMP-1 metallo-beta-lactamase.
[25] = molecular target: T8, Neuropeptides B/W receptor type 1 (Homo sapiens, UniProt P48145); test: human NPBW1 receptor blockade, IC50 – cell-based, fluorescence, dose response, set 6, late-stage follow-up (AID 588583); type: functional
T8 sequence (P48145 whole entry): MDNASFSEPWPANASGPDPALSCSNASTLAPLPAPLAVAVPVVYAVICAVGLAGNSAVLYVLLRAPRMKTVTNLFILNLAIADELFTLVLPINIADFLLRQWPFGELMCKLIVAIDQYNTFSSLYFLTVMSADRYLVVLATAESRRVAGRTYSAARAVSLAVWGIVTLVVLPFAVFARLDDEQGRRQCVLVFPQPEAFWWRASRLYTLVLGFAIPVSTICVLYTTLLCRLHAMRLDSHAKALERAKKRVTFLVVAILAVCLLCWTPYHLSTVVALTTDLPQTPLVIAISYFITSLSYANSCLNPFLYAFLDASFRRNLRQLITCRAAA

[26] = molecular target: Melanin-concentrating hormone receptor 1 (Homo sapiens, UniProt Q99705); test: Late-stage fluorescence-based counterscreen for antagonists of the G-protein coupled receptor 7 (GPR7): cell-based dose response assay to identify antagonists of the melanin-concentrating hormone receptor 1 (MCHR1) Set 6.; type: functional
Chain of Melanin-concentrating hormone receptor 1 (Q99705 whole entry): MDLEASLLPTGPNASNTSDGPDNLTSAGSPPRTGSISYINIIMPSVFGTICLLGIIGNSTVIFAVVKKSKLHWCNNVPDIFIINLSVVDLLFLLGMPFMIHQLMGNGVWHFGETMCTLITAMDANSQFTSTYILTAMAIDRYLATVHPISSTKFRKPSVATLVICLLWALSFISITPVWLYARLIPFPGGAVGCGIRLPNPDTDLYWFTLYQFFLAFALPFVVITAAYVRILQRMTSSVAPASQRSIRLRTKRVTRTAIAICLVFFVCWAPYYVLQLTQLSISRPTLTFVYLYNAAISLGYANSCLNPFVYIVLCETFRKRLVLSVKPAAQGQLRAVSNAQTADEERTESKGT

T3 sequence (P63165 whole entry): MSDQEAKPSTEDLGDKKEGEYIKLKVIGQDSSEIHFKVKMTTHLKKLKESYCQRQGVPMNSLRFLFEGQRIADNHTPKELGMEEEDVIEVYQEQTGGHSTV
T7 sequence (Q79MP6 whole entry): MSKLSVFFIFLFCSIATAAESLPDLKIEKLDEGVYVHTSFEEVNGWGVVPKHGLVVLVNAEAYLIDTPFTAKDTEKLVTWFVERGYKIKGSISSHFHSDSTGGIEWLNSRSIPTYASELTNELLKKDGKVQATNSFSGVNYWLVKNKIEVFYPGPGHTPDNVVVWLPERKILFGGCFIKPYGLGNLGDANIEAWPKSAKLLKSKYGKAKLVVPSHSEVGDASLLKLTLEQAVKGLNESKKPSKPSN
Chain of Beta-lactamase (Salmonella choleraesuis (strain SC-B67), UniProt Q5J463) (Q5J463 whole entry): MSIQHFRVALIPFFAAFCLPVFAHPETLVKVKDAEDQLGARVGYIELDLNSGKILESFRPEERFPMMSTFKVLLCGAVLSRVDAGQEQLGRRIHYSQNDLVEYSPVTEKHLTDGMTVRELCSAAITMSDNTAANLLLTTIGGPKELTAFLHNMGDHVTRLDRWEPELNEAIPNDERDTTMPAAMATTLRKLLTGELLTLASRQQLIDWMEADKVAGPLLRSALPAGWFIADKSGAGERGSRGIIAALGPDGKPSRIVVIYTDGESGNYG

With `COC(=O)c1c(NC(=O)c2ccccc2)sc(C(=O)c2ccccc2)c1C` the EC50 [1] was > 150 µM (not active), the IC50 [2] was 21.3 µM (inactive) and the IC50 [3] was 15.6 µM (active). For the same compound, the EC50 [4] was 18.4 µM (active) and the EC50 [5] was 6.12 µM (active).
For `S=C(NCc1ccc(Cl)cc1)NC12CC3CC(CC(C3)C1)C2`, the AC50 [6] was 13.1 µM (active), the AC50 [7] was 8.99 µM (active) and the EC50 [8] was > 60 µM (not active). The CC50 [9] was 18.8 µM (active), the AC50 [10] was 4.88 µM (active) and the AC50 [11] was 31.8 µM (active). The AC50 [12] was 5.6 µM (active), the AC50 [13] was 6.05 µM (active) and the EC50 [14] was 3.41 µM (active).
In the case of `CC1=CCC(C(=O)O)C(C(=O)NC2CCCCC2)C1` (stereo unspecified), the IC50 [15] is reported as > 66.6 µM (inactive), the IC50 [16] is reported as 20.4 µM (inactive) and the IC50 [17] is reported as 33.8 µM (active). For the same compound, the AC50 [18] was 10.2 µM (active).
In the case of `Cc1ccc(CNC(=O)c2cccc3c2C(=O)c2ccc(N4CCC(C)CC4)cc2S3(=O)=O)cc1`, the EC50 [19] is reported as 5.51 µM (active) and the AC50 [20] is reported as 39.3 µM (active).
For `Cc1ccc(CNC(=O)C2CCC(=O)N(CCc3ccccn3)C2)s1` (stereo unspecified), the AC50 [21] was 35.6 µM (active).
For `O=C(Nc1ccc(C(=O)OC2CCCCC2)cc1)c1ccncc1`, the AC50 [6] was > 70 µM (inactive), the AC50 [7] was 13.8 µM (active) and the AC50 [11] was 64.2 µM (active).
In the case of `S=c1[nH]nc(Cn2c(-c3ccccn3)nc3ccccc32)n1-c1ccc2c(c1)OCCO2`, the IC50 [22] is reported as > 59.6 µM (inactive), the IC50 [23] is reported as > 59.6 µM (inactive) and the IC50 [24] is reported as > 59.6 µM (inactive).
With `COc1ccc(Oc2c(Cl)cnn(Cc3ccccc3[N+](=O)[O-])c2=O)cc1` the IC50 [25] was 1.41 µM (active) and the IC50 [26] was 1.41 µM (active).
With `CC(C)(C#N)c1c(Cl)cnn(Cc2cccc3ccccc23)c1=O` the IC50 [25] was 2.5 µM (active) and the IC50 [26] was 2.5 µM (active).
